Reference: US5457119A, “A89271 factors and processes for their production” (priority 1994, dated 1995)
Converted amounts (≈) assume the structure as drawn.

Experiments:
Type in all cases: cell-based
Candida albicans [1] = assay: In vitro antifungal activity, RPMI and 10% fetal calf serum broth
Description: (§1) In those tables, a dash or "N.T." means the material was not tested.

[2] = system: Trichophyton mentagrophytes; assay: as above
Description: as §1

Aspergillus fumigatus [3] = assay: In vitro antifungal activity, Sabouraud's and Dextrose broth
Description: as §1

Candida albicans [4] = assay: as above
Description: as §1

[5] = system: Trichophyton mentagrophytes; assay: as above
Description: as §1

[6] = system: L1210 murine leukemia cell line; assay: Disk diffusion soft agar colony formation assay; conditions: 200 zone units = 6 MM
Method: (§2) The method of performing the disk diffusion soft agar colony […] assay is described in Chapter 3 of Cytotoxic Anticancer Drugs: Models and Concepts for Drug Discovery and Development (Frederick A. Valeriote, et al., eds., 1990). In addition to the procedure taught in this reference, one mL ethanol was added to each dry factor in a vial, and the desired concentration of solution was placed on a paper disk. The disk was dried and then placed on soft agar plates as described in the reference.
L1210 = murine leukemia cell line
(§3) ^2 Measurement in zone units; 200 zone units = 6 MM

[7] = system: P03 murine pancreatic solid tumor cell line; assay: Disk diffusion soft agar colony formation assay; conditions: 200 zone units = 6 MM
Method: as §2
P03 = murine pancreatic solid tumor cell line
as §3

[8] = system: C38 murine colon solid tumor cell line; assay: Disk diffusion soft agar colony formation assay; conditions: 200 zone units = 6 MM
Method: as §2
C38 = murine colon solid tumor cell line
as §3

[9] = system: CX-1 human colon solid tumor cell line; assay: Disk diffusion soft agar colony formation assay; conditions: factor line, no dose given, 200 zone units = 6 MM
Method: as §2
CX1 = human colon solid tumor cell line
as §3

[10] = system: H8 human colon solid tumor cell line; assay: Disk diffusion soft agar colony formation assay; conditions: 200 zone units = 6 MM
Method: as §2
H8 = human colon solid tumor cell line
as §3

[11] = system: LML "Low Malignancy Line" fibroblast; assay: Disk diffusion soft agar colony formation assay; conditions: 200 zone units = 6 MM
Method: as §2
LML = "Low Malignancy Line" fibroblast
as §3

[12] = system: Mam17 murine mammary solid tumor cell line; assay: Disk diffusion soft agar colony formation assay; conditions: 200 zone units = 6 MM
Method: as §2
Mam17 = murine mammary solid tumor cell line
as §3

Aspergillus fumigatus [13] = assay: In vitro antifungal activity, RPMI and 10% fetal calf serum broth; conditions: Table 5
Description: as §1

Aspergillus fumigatus [14] = assay: In vitro antifungal activity, Antibiotic 3 broth (Difco); conditions: Table 7
Description: as §1

Candida albicans [15] = assay: as above; conditions: Table 7
Description: as §1

[16] = system: Trichophyton mentagrophytes; assay: as above
Description: as §1

[17] = Table 1, RPMI and 10% Fetal Calf Serum Broth
[18] = unlabelled line below the (45 ug) line
[19] = Table 3, RPMI & 10% Fetal Calf Serum Broth
[20] = Table 5, RPMI and 10% Fetal Calf Serum Broth
[21] = unlabelled line below the (80 ug) line

Row | SMILES | Measurement in zone units ([6]; factor line, no dose given) | Measurement in zone units ([8]; factor line, no dose given) [zone units] | MIC (Candida albicans [1]; [19]) [µg/mL] | MIC [2, 19] [µg/mL] | MIC (Aspergillus fumigatus [3]; Table 4) [µg/mL] | MIC (Candida albicans [4]; Table 4) [µg/mL] | MIC ([5]; Table 4) [µg/mL] | Measurement in zone units ([6]; 20 ug per disk) | Measurement in zone units ([6]; 80 ug per disk) | Measurement in zone units ([8]; 20 ug per disk) | Measurement in zone units ([8]; 80 ug per disk) | Measurement in zone units ([12]; factor line, no dose given) [zone units] | Measurement in zone units ([10]; 20 ug per disk) | Measurement in zone units ([10]; 80 ug per disk) | Measurement in zone units ([11]; 20 ug per disk) | Measurement in zone units ([11]; 80 ug per disk) | MIC (Aspergillus fumigatus [13]) [µg/mL] | MIC (Candida albicans [1]; [20]) [µg/mL] | MIC (Aspergillus fumigatus [3]; Table 6) [µg/mL] | MIC (Candida albicans [4]; Table 6) [µg/mL] | further results
1 | [C-]#[N+]C12C3OC3C(C)(C)C3=Nc4cccc5c4C3(O)C1(O)C(CC(Cl)C2(C)C=C)C5(C)C (stereo not drawn) [A89271 A] | 0-400 zone units | 650 |  |  |  |  |  |  |  |  |  |  |  |  |  |  |  |  |  |  | MIC (Candida albicans [1]; [17]): 2.5 µg/mL (≈ 5.52 µM); MIC [2, 17]: > 20 µg/mL; MIC (Aspergillus fumigatus [3]; Table 2): 80 µg/mL (≈ 177 µM); MIC (Candida albicans [4]; Table 2): 2.5 µg/mL (≈ 5.52 µM); MIC ([5]; Table 2): 10 µg/mL (≈ 22.1 µM); Measurement in zone units ([6]; 9 ug per disk): 200-250 zone units; Measurement in zone units ([6]; 11 ug per disk): 250-320 zone units; Measurement in zone units ([7]; 9 ug per disk): 500 zone units; Measurement in zone units ([7]; factor line, no dose given): 650 zone units; Measurement in zone units ([8]; 9 ug per disk): 480 zone units; Measurement in zone units ([8]; 11 ug per disk): 610 zone units; Measurement in zone units ([8]; 45 ug per disk): 670 zone units; Measurement in zone units [8, 18]: 750 zone units; Measurement in zone units [9]: 600-650 zone units; Measurement in zone units ([10]; 9 ug per disk): 200-330 zone units; Measurement in zone units ([10]; 11 ug per disk): 250-420 zone units; Measurement in zone units [10, 18]: 300-470 zone units; Measurement in zone units ([11]; 11 ug per disk): 0-300 zone units; Measurement in zone units [11, 18]: 0-300 zone units
2 | [C-]#[N+]C1C2c3c(C(C)(C)C=C)[nH]c4cccc(c34)C(C)(C)C2CC(Cl)C1(C)C=C (stereo not drawn) [A89271 B] | 210 zone units |  | 1.25 (≈ 3.07 µM) | 2.5 (≈ 6.14 µM) | 20 (≈ 49.1 µM) | 1.25 (≈ 3.07 µM) | > 80 | 100-200 zone units | 200-250 zone units | 260-400 zone units | 430 zone units | 220 | 180 zone units | 200-300 zone units | 0-100 zone units | 80-250 zone units |  |  |  |  | Measurement in zone units [9]: 220 zone units; Measurement in zone units ([11]; factor line, no dose given): 0-250 zone units
3 | [C-]#[N+]C1C(C)(C=C)C(Cl)CC2C(C)(C)c3cccc4[nH]c(C(C)(C)C=C)c(c34)C21O (stereo not drawn) [A89271 C] |  |  | 1.25 (≈ 2.96 µM) | 0.625 (≈ 1.48 µM) | > 80 | 2.5 (≈ 5.91 µM) | > 80 |  |  |  |  |  |  |  |  |  |  |  |  |  | 
4 | [C-]#[N+]C12C(O)C(O)C(C)(C)c3[nH]c4cccc5c4c3C1(O)C(CC(Cl)C2(C)C=C)C5(C)C (stereo not drawn) [A89271 D] |  |  | 1.25 (≈ 2.75 µM) | 0.625 (≈ 1.37 µM) | > 80 | 1.25 (≈ 2.75 µM) | > 80 |  |  |  |  |  |  |  |  |  |  |  |  |  | 
5 | [C-]#[N+]C1C(C)(C=C)CCC2C(C)(C)c3cccc4[nH]c(C(C)(C)C=C)c(c34)C12O (stereo not drawn) [A89271 E] | 280 zone units | 300 |  |  |  |  |  | 100-200 zone units | 250-300 zone units | 300-360 zone units |  | 350 | 100-180 zone units | 220-240 zone units | 80 zone units | 100-180 zone units | > 80 | 2.5 (≈ 6.43 µM) | > 80 | 5 (≈ 12.9 µM) | MIC [2, 20]: 2.5 µg/mL (≈ 6.43 µM); MIC ([5]; Table 6): 2.5 µg/mL (≈ 6.43 µM); MIC (Aspergillus fumigatus [14]): > 80 µg/mL; MIC (Candida albicans [15]): 5.0 µg/mL (≈ 12.9 µM); MIC ([16]; Table 7): 5.0 µg/mL (≈ 12.9 µM); Measurement in zone units [6, 21]: 200-220 zone units; Measurement in zone units ([7]; 80 ug per disk): 440-500 zone units; Measurement in zone units [7, 21]: 460 zone units; Measurement in zone units [8, 21]: 480-500 zone units
6 | [C-]#[N+]C12C3OC3C(C)(C)c3[nH]c4cccc5c4c3C1(O)C(CC(Cl)C2(C)C=C)C5(C)C (stereo not drawn) [A89271 F] | 200-250 zone units | 500 | 1.25 (≈ 2.86 µM) | 1.25 (≈ 2.86 µM) | > 80 | 1.25 (≈ 2.86 µM) | > 80 | 300-350 zone units | 350-460 zone units | 590 zone units | 550-580 zone units |  | 200-350 zone units | 200-400 zone units | 0-80 zone units | 0-120 zone units |  |  |  |  | Measurement in zone units ([6]; 8 ug per disk): 250-280 zone units; Measurement in zone units ([6]; 16 ug per disk): 0-220 zone units; Measurement in zone units ([7]; 16 ug per disk): 440 zone units; Measurement in zone units ([7]; factor line, no dose given): 500 zone units; Measurement in zone units ([8]; 16 ug per disk): 460 zone units; Measurement in zone units ([12]; 8 ug per disk): 250 zone units; Measurement in zone units ([10]; 16 ug per disk): 200-330 zone units; Measurement in zone units ([10]; factor line, no dose given): 200-300 zone units; Measurement in zone units ([11]; 8 ug per disk): 0-400 zone units
7 | [C-]#[N+]C12C3OC3C(C)(C)c3[nH]c4cccc5c4c3C1(O)C(CCC2(C)C=C)C5(C)C (stereo not drawn) [A89271 I] | 260 zone units |  |  |  |  |  |  | 100-250 zone units | 200-220 zone units | 680 zone units | 500 zone units | 250 | 100-180 zone units |  | 0-180 zone units | 100-200 zone units | > 80 | 1.25 (≈ 3.11 µM) | > 80 | 2.5 (≈ 6.21 µM) | MIC [2, 20]: 2.5 µg/mL (≈ 6.21 µM); MIC ([5]; Table 6): 2.5 µg/mL (≈ 6.21 µM); MIC (Aspergillus fumigatus [14]): > 80 µg/mL; MIC (Candida albicans [15]): 1.25 µg/mL (≈ 3.11 µM); MIC ([16]; Table 7): 5.0 µg/mL (≈ 12.4 µM); Measurement in zone units ([6]; 16 ug per disk): 110 zone units; Measurement in zone units ([7]; 16 ug per disk): 420 zone units; Measurement in zone units ([7]; 80 ug per disk): 490 zone units; Measurement in zone units ([8]; 16 ug per disk): 390 zone units; Measurement in zone units ([10]; 16 ug per disk): 120 zone units; Measurement in zone units ([11]; factor line, no dose given): 0-200 zone units
8 | C[C@@H]1[C@H](O)[C@@H](C)/C=C/C=C/C=C/C=C/C=C/C=C/C=C/[C@H](O[C@@H]2O[C@H](C)[C@@H](O)[C@H](N)[C@@H]2O)C[C@@H]2O[C@](O)(C[C@@H](O)C[C@@H](O)[C@H](O)CC[C@@H](O)C[C@@H](O)CC(=O)O[C@H]1C)C[C@H](O)[C@H]2C(=O)O [Amphotericin B, reference compound] |  |  | 0.156 (≈ 0.169 µM) |  | 1.25 (≈ 1.35 µM) | 0.312 (≈ 0.338 µM) |  |  |  |  |  |  |  |  |  |  | 1.25 (≈ 1.35 µM) | 0.625 (≈ 0.676 µM) | 5.0 (≈ 5.41 µM) | 0.312 (≈ 0.338 µM) | MIC (Candida albicans [1]; [17]): 0.156 µg/mL (≈ 0.169 µM); MIC (Aspergillus fumigatus [3]; Table 2): 1.25 µg/mL (≈ 1.35 µM); MIC (Candida albicans [4]; Table 2): 0.625 µg/mL (≈ 0.676 µM); MIC (Aspergillus fumigatus [14]): 0.039 µg/mL (≈ 0.0422 µM); MIC (Candida albicans [15]): 0.02 µg/mL (≈ 0.0216 µM)
9 | Cc1cccc(N(C)C(=S)Oc2ccc3ccccc3c2)c1 [Tolnaftate, reference compound] |  |  |  |  |  |  |  |  |  |  |  |  |  |  |  |  |  |  |  |  | MIC ([2]; Table 1, RPMI and 10% Fetal Calf Serum Broth, read-out: MIC): 0.039 µg/mL (≈ 0.127 µM); MIC ([2]; Table 3, RPMI & 10% Fetal Calf Serum Broth, read-out: MIC): < 0.02 µg/mL; MIC ([2]; Table 5, RPMI and 10% Fetal Calf Serum Broth, read-out: MIC): 0.02 µg/mL (≈ 0.0651 µM); MIC ([5]; Table 2, read-out: MIC): 0.039 µg/mL (≈ 0.127 µM); MIC ([5]; Table 4, read-out: MIC): < 0.02 µg/mL; MIC ([5]; Table 6, read-out: MIC): 0.02 µg/mL (≈ 0.0651 µM); MIC ([16]; Table 7, read-out: MIC): 0.02 µg/mL (≈ 0.0651 µM)
